Laboratory results from US20240366546A1, “ANTI-HELICOBACTER PYLORI DERIVATIVE CONTAINING DIHYDROSTILBENE PARENT NUCLEUS AND PREPARATION METHOD AND APPLICATION THEREOF” (NANJING UNIVERSITY OF CHINESE MEDICINE, priority 2024, published 2024).
≈ marks a conversion by molar mass, not a printed value.

Experiments:
Assay type in all cases: cell-based
[1] = system: Helicobacter pylori strain Hp129; assay: Determination of MIC, broth microdilution, strain Hp129; conditions: 72 hours of culture, (R) beside control drug values, read-out: Minimum inhibitory concentration against helicobacter pylori Hp129
Procedure: (§1) Anti-Helicobacter pylori activity of each compound is evaluated by a broth microdilution method in an activity experiment, and metronidazole, levofloxacin, clarithromycin and vancomycin used in clinic are selected as positive control drugs.
(§2) Helicobacter pylori strains HpG27, Hp159, Hp129 and Hp26695 provided by Professor Hongkai Bi of Nanjing Medical University. Culture mediums and main reagents: Colombian culture mediums, selective antibiotics (metronidazole, levofloxacin and clarithromycin), serum, and the like.
(§3) The strains were taken out of a refrigerator at −80° C. and placed at room temperature, 200 L of standard strains were accurately sucked, transferred to a solid culture medium, and spread with an L-shaped glass rod, a culture dish loaded with the strains was put into a culture bag, then an AnaeroPack was put into the culture bag, and the culture bag was quickly sealed and then put into a constant temperature incubator at 37° C. to culture for 72 hours. After the end of culture, each strain was identified first, then a lawn on the solid culture medium was scraped off, and the lawn was transferred into 50 mL of liquid culture medium to serve as an original bacterial solution.
(§4) • (1) Sample solutions of the compounds 1 to 9 obtained by separation and purification above were prepared according to a concentration of 1 mg/mL. • (2) In preparation of an MIC plate, a first well was added with 176 μL of culture medium and then added with 3.2 μL of antibacterial drug, and dilution was carried out by multiple proportions to a 7th well; and an 8th well was not added with the drug, but was reserved with 90 μL of culture medium to serve as a control with bacteria but no drug. • (3) In preparation of a bacterial solution, Helicobacter pylori growing at a logarithmic phase on a solid plate was made into a bacterial suspension with a BHI culture medium, an OD600 value of concentration of the bacterial suspension was adjusted to be 0.3 (1×10^8 CFU/mL), and the bacterial suspension was diluted by 10 times to reach 1×10^7 CFU/mL for later use. • (4) In inoculation, 10 μL of bacterial solution was added into the 1st to 8th wells (a concentration of the bacterial solution in each well was about 1.0×10^6 CFU/mL). Results were judged after 72 hours of culture. […] The test was only meaningful when the bacteria in the 8th well of the positive control well (without antibiotics) grew obviously. When there was a single drift in a microdilution method, the highest drug concentration capable of inhibiting the growth of bacteria should be recorded. If there were many drifts, the results should not be reported, and the test should be repeated.

[2] = system: Helicobacter pylori strain HpG27; assay: Determination of MIC, broth microdilution, strain HpG27; conditions: 72 hours of culture, read-out: Minimum inhibitory concentration against helicobacter pylori HpG27
Procedure: as §1, §2, §3, §4

[3] = system: Helicobacter pylori strain Hp159; assay: Determination of MIC, broth microdilution, strain Hp159; conditions: 72 hours of culture, (R) beside control drug values, read-out: Minimum inhibitory concentration against helicobacter pylori Hp159
Procedure: as §1, §2, §3, §4

[4] = system: Helicobacter pylori strain Hp26695; assay: Determination of MIC, broth microdilution, strain Hp26695; conditions: 72 hours of culture, read-out: Minimum inhibitory concentration against helicobacter pylori Hp26695
Procedure: as §1, §2, §3, §4

[5] = system: drug-resistant and sensitive Helicobacter pylori; assay: Determination of MIC, broth microdilution, summary over strains; conditions: two kinds of drug-resistant and sensitive Helicobacter pylori; range over strains
Procedure: as §1, §2, §3, §4

Structure (SMILES) | MIC [1] [µg/mL] | MIC [2] [µg/mL] | MIC [3] [µg/mL] | MIC [4] [µg/mL] | MIC [5] [µg/mL]
COc1cc(O)c(CC=C(C)C)c(CCc2ccc(O)cc2)c1 [Compound 3, uralensisol I] | 8 (≈ 25.6 µM) | 4 (≈ 12.8 µM) | 8 (≈ 25.6 µM) | 4 (≈ 12.8 µM) | 4 to 8 (≈ 12.8 to 25.6 µM)
CC(=O)Oc1cc(O)c(CC=C(C)C)c(CCc2ccc(O)cc2)c1CC=C(C)C [Compound 7, uralensisol M] | 8 (≈ 19.6 µM) | 8 (≈ 19.6 µM) | 8 (≈ 19.6 µM) | 8 (≈ 19.6 µM) | 4 to 8 (≈ 9.79 to 19.6 µM)
CC(C)=CCc1cc(CCc2cc(O)cc(O)c2CC=C(C)C)ccc1O [Compound 9, uralensisol 0] | 8 (≈ 21.8 µM) | 8 (≈ 21.8 µM) | 8 (≈ 21.8 µM) | 8 (≈ 21.8 µM) | 4 to 8 (≈ 10.9 to 21.8 µM)
CC(=O)Oc1cc(O)cc(CCc2ccc(O)c(CC=C(C)C)c2)c1CC=C(C)C [Compound 4, uralensisol J] | > 16 | > 16 | > 16 | > 16 | –
CC[C@H]1OC(=O)[C@H](C)[C@@H](O[C@H]2C[C@@](C)(OC)[C@@H](O)[C@H](C)O2)[C@H](C)[C@@H](O[C@@H]2O[C@H](C)C[C@H](N(C)C)[C@H]2O)[C@](C)(OC)C[C@@H](C)C(=O)[C@H](C)[C@@H](O)[C@]1(C)O [CLR, clarithromycin, reference compound] | 1 (≈ 1.34 µM) | 0.008 (≈ 0.0107 µM) | 2 (≈ 2.67 µM) | 0.008 (≈ 0.0107 µM) | –
CCC(C)C(=O)Oc1cc(O)cc(CCc2ccc(O)cc2)c1CC=C(C)C (centres unmarked) [Compound 2] | > 16 | > 16 | > 16 | > 16 | –
CC(C)=CCc1c(O)cc(O)c(CC=C(C)C)c1CCc1ccc(O)cc1 [Compound 6, uralensisol L] | 8 (≈ 21.8 µM) | 4 (≈ 10.9 µM) | 8 (≈ 21.8 µM) | 8 (≈ 21.8 µM) | 4 to 8 (≈ 10.9 to 21.8 µM)
COc1c(O)cc(CCc2cc(O)cc(OC(C)=O)c2CC=C(C)C)cc1CC=C(C)C [Compound 5, uralensisol K] | > 16 | > 16 | > 16 | > 16 | –

Continued, values first:

MIC [1] [µg/mL] | MIC [2] [µg/mL] | MIC [3] [µg/mL] | MIC [4] [µg/mL] | MIC [5] [µg/mL] | Structure (SMILES)
32 (≈ 187 µM) | 2 (≈ 11.7 µM) | 16 (≈ 93.5 µM) | 1 (≈ 5.84 µM) | – | Cc1ncc([N+](=O)[O-])n1CCO [MTZ, metronidazole, reference compound]
> 16 | > 16 | > 16 | > 16 | – | O=Cc1c(O)cc(O)cc1CCc1ccc(O)cc1 [Compound 8, uralensisol N]
8 (≈ 21.7 µM) | 8 (≈ 21.7 µM) | 8 (≈ 21.7 µM) | 8 (≈ 21.7 µM) | 4 to 8 (≈ 10.9 to 21.7 µM) | CC(C)=CCc1c(CCc2ccc(O)cc2)cc(O)cc1OC(=O)C(C)C [Compound 1]
8 (≈ 22.1 µM) | 0.25 (≈ 0.692 µM) | 8 (≈ 22.1 µM) | 0.25 (≈ 0.692 µM) | – | C[C@H]1COc2c(N3CCN(C)CC3)c(F)cc3c(=O)c(C(=O)O)cn1c23 [LVX, levofloxacin, reference compound]
